Laboratory results from patent US20250326755A1, “CYCLIC QUATERNARY AMMONIUM SALT COMPOUND, AND PREPARATION METHOD THEREFOR AND USE THEREOF” (YICHANG HUMANWELL PHARMACEUTICAL CO., LTD., priority 2022, published 2025).

Tests used:
Assay type in all cases: in vivo, SD rats
[1] = tested on: rat subcutaneous infiltration model; assay: Local anesthetic effect by subcutaneous infiltration, Von Frey needle stimulation of back skin
sciatic nerve of the rat = settings: rat, in vivo
Protocol: The experimental methods described in the following test examples were standard procedures unless otherwise specified. All experimental animals used in the following test examples were SD rats purchased from Hunan Slac Jingda Experimental Animal Co., Ltd. Other test materials, unless stated otherwise, were purchased from conventional biochemical reagent suppliers.
The compounds listed in Table 1 and levobupivacaine hydrochloride (positive control) were administered to three groups of rats fully acclimated to the experimental environment, with one rat per group.
Solution Preparation: 2 mg/ml Levobupivacaine Hydrochloride Injection: 2.670 ml of 7.5 mg/ml levobupivacaine hydrochloride injection (Batch No. 92S0702) was pipetted into a 10 ml volumetric flask. 0.9% NaCl solution was added until the meniscus was level with the calibration line, and the solution was inverted and mixed thoroughly, to prepare 2 mg/ml levobupivacaine hydrochloride injection. 2 mg/ml Example Compound Solution: 6.6 mg of the example compound was accurately weighed and dissolved in 3.3 ml of 0.9% NaCl solution to prepare a 2 mg/ml example compound solution.
Both the positive control and the example compound were administered to each rat at 2 mg/ml, with an administration volume of 5 ml/kg, in a single injection near the sciatic nerve of the rat. After the administration, the rat was placed on a preheated hot plate (50±0.1° C.) of an intelligent hot plate instrument. […] The maximum thermal latency was controlled at 60 s. […] Any urine or feces on the hot plate was promptly cleaned and dried before subsequent tests.
Thermal latency results were expressed as the maximum proportional effect (MPE), calculated using the following formula.
Wherein: B represented the basal thermal latency of the rats; P was the maximum thermal latency C was the observed thermal latency at the detection time point.
Measurements were considered invalid if the MPE was less than 50% of the maximum proportional effect. If two consecutive measurements yielded an MPE of less than […], the experiment was terminated.

[2] = tested on: rat subcutaneous infiltration model; assay: Local anesthetic effect by subcutaneous infiltration, Von Frey needle stimulation of back skin; settings: 1 mg/ml, 0.5 mL subcutaneous injection on the back, 10 rats
Protocol: After shaving and disinfecting the backs of SD rats (half male and half female) weighing 190-210 grams, a circle with a diameter of approximately 1.5 cm was drawn on one side of the exposed skin. 0.5 mL of a solution containing the drug was subcutaneously injected into the skin in the center. The solution, using physiological saline as the solvent, contained either 2 mg/ml bupivacaine hydrochloride or 1 mg/ml concentration of the compounds listed in Table 2 of the present application. Each group consisted of 10 rats. A Von Frey fiber with a 100-gram force was attached to a needle for local skin stimulation. One minute after drug administration, the rat's response to the stimulus was measured. Testing was conducted at 6 different points within the marked area of drug administration. Skin contraction, avoidance, and other behaviors following stimulation were observed and recorded. Three points in the center and three points around the circle were stimulated, and the number of skin contraction and avoidance behaviors was recorded as N6. […] Each compound was tested on 10 rats.

CCCC[N+]1(CCCCOc2ccccc2)CCCC[C@H]1C(=O)Nc1ccc(F)cc1 (stereo partly drawn) [Compound of Example 39, (2S)-1-Butyl-2-((4-fluorophenyl)carbamoyl)-1-(4-phenoxybutyl)piperidine bromide]
Duration/h ([1]; Drug Concentration 0.3 mmol/L): 24 to 48 h
Duration/h ([1]; Drug Concentration 1 mmol/L): 48 to 72 h
Duration/h (sciatic nerve of the rat): 72 to 96 h
Onset Time/min (sciatic nerve of the rat): 1 min
Duration/h [2]: 72 to 96 h
Onset Time/min [2]: 1 min
